Experimental data: US20070280944A1, “Use of 5,10-Methylene Tetrahydrofolate for the Treatment of Cancer” (priority 2004, published 2007)

Legend:
[1] = test system: human colon carcinoma HT-29; assay: HT-29 Colorectal Carcinoma Nude Mouse Study #2 (doubling time, tumor volume, survival); type: in vivo, Nude (nu/nu) mice
Text: (§1) Nude (nu/nu) mice were obtained from Charles River Laboratories.
5-Fluorouracil (5-FU) was obtained from Calbiochem. Leucovorin (leucovorin) and oxaliplatin were obtained from Sigma-Aldrich. 5,10 methylenetetrahydofolate was manufactured by Eprova AG. A monoclonal antibody to vascular endothelial growth factor (anti-VEGF) was either obtained from R&D Systems (clone 26503 recognizing the human VEGF isoform 165) or Genentech (Avastin).
Finally, cells were resuspended at 1×10^7 cells/ml in PBS. […] All drugs were dosed daily (0.6 mg/mouse/drug) for seven consecutive days with the exception of anti-VEGF, dosed twice (100 micrograms/mouse) on days 1 and 7. In addition, 5,10-CH2-THFA or leucovorin were injected 20 minutes prior to 5-FU injection. Tumor sizes were measured every 2 to 3 days using calipers.
(§2) Statistical analysis of tumor and blood data was performed using GraphPad Prism scientific software. Bonferonni's T test was used to compare tumor sizes between multiple groups. The Logrank test was used to determine statistical differences between group survival curves. In some cases, in which only two groups were compared, Student's T test was used to determine the significance between group measurements.

[2] = test system: Balb/c mice
Method: (§3) Balb/c mice were obtained from Charles River Laboratories.
5-Fluorouracil (5-FU) was obtained from Calbiochem. Leucovorin (folinic acid) was obtained from Sigma-Aldrich.
All drugs were intraperitoneally injected (100 microliters/mouse, 0.6mg/mouse/drug) using a 28 gauge insulin needle/syringe. 200-250 microliters blood/mouse was collected by retro-orbital puncture into EDTA-coated microtainer tubes (VWR International) on days 0 (prior to drug injection), 8, and 13. Complete blood counts plus blood differentials were determined by Labcorp Corporation of America using a Bayer Advia 120 Hematology analyzer.

[3] = test system: human colon carcinoma HT-29; assay: HT-29 Colorectal Carcinoma Nude Mouse Study #1 (tumor volume, survival); type: in vivo, Nude (nu/nu) mice; details: for mean tumor volume: 22 days following treatment initiation, mean±SEM, i.p. dosing, in mm³ (unit assumed)
Method: as §1
5-Fluorouracil (5-FU) was obtained from Calbiochem. Leucovorin (leucovorin) and oxaliplatin were obtained from Sigma-Aldrich.
Finally, cells were resuspended at 2×10^7 cells/ml in PBS. […] All drugs were dosed daily (0.6 mg/mouse/drug) for five consecutive days with the exception of anti-VEGF and oxaliplatin. Anti-VEGF was dosed once (100 microgram/mouse) on day 5. Oxaliplatin was dosed once on day 1 (0.3mg/mouse). In addition, 5,10-CH2-THFA or leucovorin were injected 20 minutes prior to 5-FU injection. Tumor sizes were measured every 2 to 3 days using calipers.
as §2

[4] = test system: Balb/c mice; type: in vivo
Method: as §3
5-Fluorouracil (5-FU) and leucovorin (leucovorin) were obtained from Sigma-Aldrich. […] Gemcitabine was manufactured by Eli Lilly and purchased from Myoderm Inc.
Balb/c female mice were injected with combinations of 5-FU, leucovorin, 5,10-CH2-THFA, and gemcitabine. 5-FU, leucovorin, and 5,10-CH2-THFA were intraperitoneally injected (100 microliters/mouse, 0.6 mg/mouse/drug) for five consecutive days (days 1-5). Gemcitabine was intraperitoneally injected (100 microliters/mouse, 100 micrograms/mouse) every three days (days 1, 4, and 7). All drugs were injected using a 27 gauge insulin needle/syringe. Mouse weights were measured using an analytical balance prior to initiation of drug dosing (pretreatment) and on day 8.

[5] = Weight loss toxicity in the Xeloda HT-29 nude mouse study; type: in vivo, Nude (nu/nu) mice; details: maximum toxicity grade, NCI CTC v3 (grade 1 5-<10% weight loss)
Text: As a surrogate marker for drug toxicity, we examined mouse body weights over time. Using the National Cancer Institute's Common Toxicity Criteria version 3 grading system for weight loss (Table 11), the maximum toxicity grade of weight loss was plotted (FIG. 21). While Xeloda by itself was relatively nontoxic, inducing only grade 1 toxicity in 36% of the mice, leucovorin increased the overall grade 1-3 toxicity to 90% of mice. This increased toxicity is consistent with phase II human clinical trial results showing leucovorin increased Xeloda toxicity parameters such as diarrhea, vomiting, and mucosal inflammation (Van Cutsem, E., M. Findlay, B. Osterwalder, W. Kocha, D. Dailey, R. Pazdur, J. Cassidy, L. Dirix, C. Twelves, D. Allman, J. F. Seitz, J. Scholmerich, H. U. Burger, and J. Verweij. 2000. Capecitabine, an oral fluoropyrimidine carbamate with substantial activity in advanced colorectal cancer: results of a randomized phase II study. J Clin Oncol 18:1337).

[6] = test system: human colon carcinoma HT-29; assay: Nude mouse study on HT-29 colorectal tumor treatment with capecitabine (Xeloda) (doubling time, survival)
Method: Nude (nu/nu) mice were obtained from Simonsen Laboratories. Mice were 6-8 weeks old at the start of all studies. Mice were maintained in isolated, hepa-filter ventilated cages with 4 mice per cage at Perry Scientific's vivarium (San Diego, Calif.).
The human colon carcinoma HT-29 was obtained from American Tissue Culture Collection (ATCC). Cells were maintained in DMEM containing 10% fetal bovine serum (FBS), 2 mM 1-glutamine, 100 units/ml penicillin, and 100 micrograms/ml streptomycin (DMEM-10) in a 37° C., 10% CO2 humidified incubator. Cells were passaged every 2-3 days prior to in vivo experiments.
Capecitabine (Xeloda) was manufactured by Roche Laboratories (Nutley, N.J.) Leucovorin (leucovorin) was obtained from Sigma-Aldrich. 5,10 methylenetetrahydofolate (5,10-CH2-THFA) was manufactured by Eprova AG.
HT-29 cells were prepared for injection as follows: Confluent tissue culture flasks of HT-29 cells were washed once with PBS followed by cell detachment with trypsin. Detached cells were then washed once in DMEM-10 followed by one wash with PBS. Finally, cells were resuspended in PBS at 10^7 cells/ml. […] Tumor sizes and mouse body weights were measured every 2-4 days. Tumor volume was calculated using the following formula: tumor volume=(length×width^2)/2. […]

[7] = female, Balb/c, mouse, in vivo, 1 week following drug treatment
[8] = female, Balb/c, mouse, in vivo, 8 day

O=c1[nH]cc(F)c(=O)[nH]1 [5-FU, 5-fluorouracil]
mean tumor volume ([1]; 19 days following treatment initiation, mean±SEM, in mm³ (unit assumed)): 368.5±63.7 | Tumor Doubling Time ([1]; from best-fit curve analysis, Nude mice bearing HT-29 tumor): 7.4 days | mice with Grade 3-4 lymphopenia ([2]; NCI grading on % of baseline lymphocyte levels (Grade 3 25-<50% LLN, Grade 4 <25% LLN), one week following drug treatment): 100% | grade 4 neutrophil toxicity mice with neutrophil cell counts between 0 and 99 ([2]; female, Balb/c, mouse, in vivo): 100% | mice with grade 4 neutrophil toxicity [2, 7]: 100% | mice with grade 4 platelet toxicity [2, 7]: 25% | mean tumor volume ([3]; Nude mice bearing HT-29 tumor): 752.5±104.2 | mice still alive (survival) ([3]; at completion of the study period (42 days), Nude mice bearing HT-29 tumor): 25% | mice with grade 2-3 weight loss toxicity [4, 8]: 100% | mice surviving for up to 14 days ([4]; normal Balb/c mice): 36%

O=C1[O][Pt]2([NH][C@@H]3CCCC[C@H]3[NH]2)[O]C1=O [Oxaliplatin, oxaliplatin]
mean tumor volume ([3]; Nude mice bearing HT-29 tumor): 875.0±90.6 | response of HT-29 tumor to drug ([3]; largest tumors of all groups, FIG. 4): not responsive

CCCCCOC(=O)Nc1nc(=O)n([C@@H]2O[C@H](C)[C@@H](O)[C@H]2O)cc1F [Xeloda, N4-pentoxylcarbonyl-5′-deoxy-5-fluorocytidine]
mice with grade 1 weight loss toxicity (only grade seen) [5]: 36% | Tumor Doubling Time ([6]; from best-fit linear regression of exponential tumor growth, 14 consecutive days dosing): 10.1 days | survival ([6]; on day 33 of the experiment (day 1 = first day of drug dosing)): 38%

Nc1ccn([C@@H]2O[C@H](CO)[C@@H](O)C2(F)F)c(=O)n1 [gemcitabine]
weight loss toxicity grade [4, 8]: grade 1
